This note sets out measurements from patent US9725459B2, “3-oxo-tetrahydro-furo[3,2-B]pyrrol-4(5H)-yl) derivatives I” (GRÜNENTHAL GMBH, priority 2014, dated 2017).

The target in one series is human cathepsin S (CatS) (Homo sapiens (Human), UniProt P25774). The experiment in a line: CatS functional enzyme assay. The note with it: for Selectivity Ki(hCatS)/Ki(hCatK): ratio Ki(hCatS)/Ki(hCatK); for Ki: recombinant human CatS, substrate Z-VVR-AMC 5 μM, pH 6.5, Ki by Cheng Prusoff equation, read-out: hCatS, Ki. In kind it is biochemical. Summed up: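 Recombinant human enzymes were incubated 10 min at RT with AMC substrate: CatS 0.0007 mU/well with Z-VVR-AMC 5 µM; CatK 0.00175 mU/well with Z-FR-AMC 40 µM; CatL 0.000874 mU/well with Z-VVR-AMC 40 µM. Fluorescence gave IC50, converted to Ki by Cheng-Prusoff.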
Chain of human cathepsin S (CatS) (P25774 115-331): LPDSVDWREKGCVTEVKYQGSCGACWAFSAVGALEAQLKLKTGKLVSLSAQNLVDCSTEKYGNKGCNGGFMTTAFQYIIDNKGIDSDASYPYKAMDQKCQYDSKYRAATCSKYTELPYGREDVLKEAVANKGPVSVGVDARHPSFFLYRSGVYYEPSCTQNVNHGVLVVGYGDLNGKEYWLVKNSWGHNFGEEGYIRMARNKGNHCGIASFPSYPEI

In the next series the target is human cathepsin K (CatK) (Homo sapiens (Human), UniProt P43235). The experiment in a line: CatK functional enzyme assay. It counts as biochemical. The following applies: recombinant human CatK, substrate Z-FR-AMC 40 μM, pH 5.5; Ki by Cheng Prusoff equation; read-out: hCatK, Ki. Summed up: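 Recombinant human enzymes in 50 mM NaOAc, 10 mM EDTA, 1 mM DTT, 0.01% Triton X-100, pH 5.5, 10 min at RT. CatK: 0.00175 mU/well with 40 μM Z-FR-AMC; CatL: 0.000874 mU/well with 40 μM Z-VVR-AMC. AMC fluorescence read; IC50 converted to Ki via Cheng–Prusoff.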
Chain of human cathepsin K (CatK) (P43235 115-329): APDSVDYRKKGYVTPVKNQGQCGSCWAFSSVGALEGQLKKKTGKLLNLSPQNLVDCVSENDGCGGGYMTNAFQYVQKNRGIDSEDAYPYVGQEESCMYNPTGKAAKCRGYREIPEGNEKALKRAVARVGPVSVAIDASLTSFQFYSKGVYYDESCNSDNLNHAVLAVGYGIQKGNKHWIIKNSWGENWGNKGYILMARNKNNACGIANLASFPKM

The next series deals with human cathepsin L (CatL) (Homo sapiens (Human), UniProt P07711). The experiment in a line: CatL functional enzyme assay. It counts as biochemical. The following applies: read-out: hCatL, inhibition [%] at 31.6 μM.
Chain of human cathepsin L (CatL) (P07711 114-333): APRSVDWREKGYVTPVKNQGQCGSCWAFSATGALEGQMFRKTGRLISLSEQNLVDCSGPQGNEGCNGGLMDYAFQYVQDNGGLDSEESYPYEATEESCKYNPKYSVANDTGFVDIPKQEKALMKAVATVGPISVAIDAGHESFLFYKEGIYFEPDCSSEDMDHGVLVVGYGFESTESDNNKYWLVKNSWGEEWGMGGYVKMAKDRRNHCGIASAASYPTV
Series [1] can be described thus: Caco 2 permeability assay. In kind it is in vitro ADME, human. The following applies: human; for efflux ratio at 120 min, 10 μM: pH 7.4, efflux ratio ER=Peff(B−A)/Peff(A−B), Caco-2; for Papp A→B at 120 min, 10 μM / Papp B→A at 120 min, 10 μM: Caco-2 monolayer, HBSS pH 7.4; for Papp A→B at 120 min, 10 μM: apical to basolateral, read-out: Peff a − b; for Papp B→A at 120 min, 10 μM: basolateral to apical, read-out: Peff b − a. As to the method:
(§1) The intestinal permeability of a potential drug is assessed by in vitro cell culture from a human colon adenoma-carcinoma derived cell line. This cell line expresses some of the systems considered relevant to active drug transport e.g. […] (P-gp). In vitro cellular permeability assays can reflect both, permeation by passive diffusion and active transport (uptake and efflux). The rate of permeation across monolayers of Caco 2 cells were correlated to the extents of absorption (Hidalgo et al., Gastroenterology 1989; 96(3):736 49). Original methodology was developed by Artursson and Taveli (Drug Bioavailability. Series: Methods and Principles in Medicinal Chemistry. Weinheim: Wiley-VCH Verlag; 2003; p. 72-89).
(§2) The assay is performed as a trans-flux experiment. Caco-2 cells (cells from ATCC) are seeded and grown to confluence to form a monolayer (ca. 3 weeks, between passage numbers 40-60) on a readily permeable support in a plastic well supported within a chamber (Millipore Multiscreen Caco-2 plates, at a cell density of ca. 1×10^5 cells/cm^2). Cells are cultured for 20 days in DMEM and media is changed every two or three days. The cells form tight junctions, so paracellular diffusion is not possible, and grow in a polarised manner, efflux transporters (P-gp) are expressed on their apical surfaces facing the culture medium, rather than at their basolateral surfaces through which they are attached to the support membrane. A low concentration of a test compound is added to the upper (apical: A) or lower (basolateral: B) chambers, and the rate of loss from the donor compartment, and the rate of transfer to the acceptor chamber, is determined by LC-MS/MS. Consequently the influence of efflux transporters expressed in the apical membrane can be determined by comparing permeability rates from A to B and B to A. Assays are generally performed in gently shaken protein-free buffer.
(§3) On ca. day 20 the permeability study is performed. The monolayers are prepared by rinsing both basolateral and apical surfaces twice with Hanks Balanced Salt Solution (HBSS) pH 7.4 buffer with HEPES (25 mM) and 4.45 mM glucose at 37° C. Cells are then incubated with HBSS in both apical and basolateral compartments for 40 min to stabilise physiological parameters. Incubations are carried out in an atmosphere of 5% CO2 with a rel. humidity of 95% at 37° C.
(§4) HBSS is next removed from the apical compartment and replaced with test compound dosing solution. Test compound dosing solutions are made by diluting 10 mM test compound in DMSO with HBSS to give a final test compound concentration of 10 μM (final DMSO concentration 1%).
(§5) The fluorescent integrity marker lucifer yellow is also included in the dosing solution. Analytical standards are made from dosing solutions. The apical compartment inserts are then placed into ‘companion’ plates containing fresh HBSS. For basolateral to apical (B-A) permeability determination the experiment is initiated by replacing buffer in the inserts then placing them in companion plates containing dosing solutions. At 120 min the companion plate is removed and apical and basolateral samples diluted for analysis by LC-MS/MS. Test compound permeability is assessed in duplicate. […] Talinolol (a known P-gp substrate 2) is also included as a control compound to assess whether functional P-gp is present in the Caco-2 cell monolayer.
(§6) Test and control compounds are quantified by LC-MS/MS cassette analysis using a 5-point calibration with appropriate dilution of the samples. The starting concentration (C0) and experimental recovery are calculated from both apical and basolateral compartment concentrations.
(§7) Apparent permeability (Papp), used interchangeably with effective permeability (Peff) and efflux ratio (ER) are generated for each compound and reference compound. The permeability coefficient for each compound (Papp) is calculated from the following equation: Peff=dQ/dt/C0×A […]
(Passage across Caco-2 layers is used to estimate intestinal permeability.)

A further series deals with Caco-2 cells. The experiment in a line: Caco 2 permeability assay. In kind it is in vitro ADME, human. The note with it: Caco-2, verbal assessment. The protocol:
as §1, §2, §3, §4, §5, §6, §7

As a reminder, the Ki is the dissociation constant of the complex between target and ligand, obtained from inhibition or displacement. As usually defined, the inhibition is the drop in the measured response relative to a control, in per cent. For orientation: efflux ratio means a quotient of directional permeabilities that is used to spot active efflux. Consider `O=C(N[C@H](C(=O)N1C[C@H](Cl)[C@H]2OCC(=O)[C@H]21)C1CCCCC1)c1ccc(-c2cncnc2)s1` [Example 5, N-((S)-2-((3aS,6S,6aS)-6-chloro-3-oxotetrahydro-2H-furo[3,2-b]pyrrol-4(5H)-yl)-1-cyclohexyl-2-oxoethyl)-5-(pyrimidin-5-yl)thiophene-2-carboxamide], for which, on human cathepsin S (CatS), the “Selectivity Ki(hCatS)/Ki(hCatK)” value was 1.5 and the Ki is 48 nM. Also, at human cathepsin K (CatK), the Ki was found to be 31 nM. Further, on human cathepsin L (CatL), the inhibition at 31.6 µM amounted to 27%. For the same compound, in series [1], the efflux ratio at 120 min, 10 μM was 3.5; the Papp A→B at 120 min, 10 μM was 4.13 ×10⁻⁶ cm/s; the Papp B→A at 120 min, 10 μM is 14.2 ×10⁻⁶ cm/s. Moreover, in the series with Caco-2 cells, the “A to B permeability (in words)” value is listed as “moderate”, the “B to A permeability (in words)” value is on record as “good” and the “efflux ratio (ER) (in words)” value is reported as “intermediate/low”.
Consider `O=C(N[C@H](C(=O)N1C[C@H](Cl)[C@H]2OCC(=O)[C@H]21)C1CCCCC1)c1ccc(-c2ccncn2)s1` [Example 7, N-((S)-2-((3aS,6S,6aS)-6-chloro-3-oxotetrahydro-2H-furo[3,2-b]pyrrol-4(5H)-yl)-1-cyclohexyl-2-oxoethyl)-5-(pyrimidin-4-yl)thiophene-2-carboxamide], for which, on human cathepsin S (CatS), the “Selectivity Ki(hCatS)/Ki(hCatK)” value is 4.7 and the Ki is 56 nM. The Ki on human cathepsin K (CatK) worked out at 12 nM. For the same compound, at human cathepsin L (CatL), the inhibition at 31.6 µM is 28%. In series [1], the efflux ratio at 120 min, 10 μM turned out to be 1.3; the Papp A→B at 120 min, 10 μM was 5.37 ×10⁻⁶ cm/s; the Papp B→A at 120 min, 10 μM worked out at 7.03 ×10⁻⁶ cm/s. In the series on Caco-2 cells, the “A to B permeability (in words)” value was “moderate”, the “B to A permeability (in words)” value is on record as “good” and the “efflux ratio (ER) (in words)” value is “intermediate/low”.
On to `O=C(N[C@H](C(=O)N1C[C@H](Cl)[C@H]2OCC(=O)[C@H]21)C1CCCCC1)c1ccc(-c2ccnnc2)s1` [Example 8, N-((S)-2-((3aS,6S,6aS)-6-chloro-3-oxotetrahydro-2H-furo[3,2-b]pyrrol-4(5H)-yl)-1-cyclohexyl-2-oxoethyl)-5-(pyridazin-4-yl)thiophene-2-carboxamide], for which, at human cathepsin S (CatS), the “Selectivity Ki(hCatS)/Ki(hCatK)” value is 1.2 and the Ki turned out to be 21 nM. Further, the inhibition constant Ki on human cathepsin K (CatK) turned out to be 17 nM. The inhibition at 31.6 µM at human cathepsin L (CatL) amounted to 32%. Also, in series [1], the efflux ratio at 120 min, 10 μM is 7.5; the Papp A→B at 120 min, 10 μM turned out to be 1.67 ×10⁻⁶ cm/s; the Papp B→A at 120 min, 10 μM stood at 12.5 ×10⁻⁶ cm/s. Also, in the series with Caco-2 cells, the “A to B permeability (in words)” value is “moderate”, the “B to A permeability (in words)” value was “good” and the “efflux ratio (ER) (in words)” value is reported as “intermediate/low”.
With `O=C(N[C@H](C(=O)N1C[C@H](Cl)[C@H]2OCC(=O)[C@H]21)C1CCCCC1)c1cccc(-c2cn[nH]c2)c1` [Example C1, N-((S)-2-((3aS,6S,6aS)-6-chloro-3-oxotetrahydro-2H-furo[3,2-b]pyrrol-4(5H)-yl)-1-cyclohexyl-2-oxoethyl)3-(1H-pyrazol-4-yl)benzamide, reference compound], on human cathepsin S (CatS), the “Selectivity Ki(hCatS)/Ki(hCatK)” value is 3.8 and the inhibitory constant (Ki) came out at 146 nM. The Ki at human cathepsin K (CatK) turned out to be 38 nM. Moreover, the inhibition at 31.6 µM at human cathepsin L (CatL) came out at 71%. For the same compound, in series [1], the efflux ratio at 120 min, 10 μM is 46.1; the Papp A→B at 120 min, 10 μM amounted to 0.53 ×10⁻⁶ cm/s; the Papp B→A at 120 min, 10 μM is 24.6 ×10⁻⁶ cm/s. Besides, in the series on Caco-2 cells, the “A to B permeability (in words)” value is reported as “poor”, the “B to A permeability (in words)” value is recorded as “good” and the “efflux ratio (ER) (in words)” value is reported as “extremely high”.
